Data on 17 molecules can be found in paper PMC9841431 (Nucleic Acids Research, 2022).

The subject of one series is M. tuberculosis H37Rv. The experiment in a line: microbe, parasite or virus in culture. It counts as cell-based. The following applies: for MIC / MIC90: Mycobacterium tuberculosis, H37RV, read-out: M. tuberculosis MIC90.
For a further series, the system named is M. bovis BCG cultures. Format: cell-based, Mycobacterium bovis BCG.
Series [1] concerns M. tuberculosis H37Rv in infected mouse Bone Marrow-Derived Macrophages. It counts as cell-based, Mycobacterium tuberculosis. The conditions noted are these: BMDM; for Reduction of the burden of intracellular bacteria: 32 × MIC.
Another series deals with Vero cells. The following applies: CC50 (Vero) / MIC90 (replicating M. tuberculosis H37Rv).
A short description of a further series: in vitro. The following applies: African green monkey, VERO cells CC50, 72 h exposure, ATP readout.
Series [2] relates to non-replicating M. tuberculosis H37Rv. Format: cell-based, Mycobacterium tuberculosis. The following applies: MBC90 NR / MIC90 replicating.
The target in another series is Mrx2WT (Mycobacterium tuberculosis, UniProt O53193). The experiment in a line: Mrx2 enzyme kinetic assay. Format: biochemical, M. tuberculosis. The following applies: 10 μM compound, 30 μM enzyme, absorbance at 412 nm.
Mrx2WT, sequence (O53193 whole entry): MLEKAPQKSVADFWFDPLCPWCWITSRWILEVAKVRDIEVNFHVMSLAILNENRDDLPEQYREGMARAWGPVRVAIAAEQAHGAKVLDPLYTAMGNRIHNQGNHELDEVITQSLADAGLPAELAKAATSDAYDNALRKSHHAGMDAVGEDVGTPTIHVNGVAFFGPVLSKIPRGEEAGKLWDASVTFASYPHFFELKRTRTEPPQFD
Another series concerns Mrx2 mutants. It counts as biochemical, M. tuberculosis. The conditions noted are these: enzyme kinetic assay.
For series [3], the system named is sigH and mrx2 expression in M. tuberculosis H37Rv. Nature of the series: sigH and mrx2 transcriptional levels by qRT-PCR upon compound exposure. The following applies: 1×, 2×, 4×, 8× MIC90; different time points. It counts as cell-based, Mycobacterium tuberculosis. (In qPCR the cycle at which signal appears reflects the starting amount.)

≈ marks a conversion by molar mass, not a printed value. Read-outs that look alike come from different tables or passages of the source. Where only a bound is given, the exact number is not on record here.

Consider “1-Butyl-2-nitronaphtho[2,1-b]furan [nNF-C11]”, for which, in the series on M. tuberculosis H37Rv (REMA, H37Rv, median), the “MIC90 R[…]. tuberculosis μM (median)” value stood at 32.89 µM and the “MIC90 R[…]. tuberculosis μg/ml (median)” value was found to be 8 µg/mL. In addition, the “MIC90 R[…]. tuberculosis μg/ml (range)” value with M. tuberculosis H37Rv (REMA, H37Rv, range) lay in the range of 8 to 16 µg/mL. Moreover, the “M. tuberculosis MIC90” value in the series with M. tuberculosis H37Rv (value used for SI in Table 2) was 8 µg/mL.
For `O=[N+]([O-])c1cn2c(n1)OC[C@@H](OCc1ccc(OC(F)(F)F)cc1)C2` [PA-824, Pretomanid, reference compound], in the series on M. bovis BCG cultures, the “NO release in treated M. bovis BCG cultures” value (“NO release” for short) is reported as “significant NO release in a concentration dependent manner”.
The term CC50 denotes the concentration at which the toxic effect on the cells reaches its halfway point. Take `CO[C@H]1/C=C/O[C@@]2(C)Oc3c(C)c(O)c4c(O)c(c(/C=N/N5CCN(C)CC5)c(O)c4c3C2=O)NC(=O)/C(C)=C\C=C\[C@H](C)[C@H](O)[C@@H](C)[C@@H](O)[C@@H](C)[C@H](OC(C)=O)[C@@H]1C` [RIF, Rifampicin, reference compound]: in the series on M. tuberculosis H37Rv, the MIC was 0.01 µg/mL (≈ 0.0122 µM). For the same molecule, in [1] (32 times its MIC), the “Concentration needed to achieve a similar level (ca. 2 logs) of intracellular killing” value was determined as 0.32 μg/ml. In the series on Vero cells, the “Selectivity index (SI)” value is given as 7824.1. The molecule further gave a cytotoxic concentration (CC50) in the series “in vitro” of 78.2 µg/mL (≈ 95 µM).
Take `O=[N+]([O-])c1cc2c(ccc3c2ccc2cc([N+](=O)[O-])oc23)o1` [nNF-C1, 2,7-dinitronaphtho[1,2-b:6,5-b']difuran]: the MIC90 in the series on M. tuberculosis H37Rv came out at 0.125 µg/mL (≈ 0.419 µM).
On to `O=[N+]([O-])c1cc2cc3ccc4oc([N+](=O)[O-])cc4c3cc2o1` [nNF-C2, 2,8-Dinitronaphtho[2,1-b:7,6-b']difuran], for which the MIC90 in the series on M. tuberculosis H37Rv was determined as 0.0625 µg/mL (≈ 0.21 µM). For the same molecule, the “Activity against non-replicating M. tuberculosis in the charcoal assay relative to MIC90 against replicating bacteria” value in series [2] is on record as 4–8 times. The “Reduction of the number of intracellular M. tuberculosis bacteria” value in [1] (4 times of MIC90 (0.25 μg/ml)) is “ca. 2 logs”. In series [1], the “Reduction of the burden of intracellular bacteria” value was “more than 4 logs”. For the same molecule, at Mrx2WT, the “Metabolism of the compound by Mrx2WT” value was “completely metabolized”. Moreover, the “Activity of Mrx2T25R, Mrx2S46R, Mrx2Y91S, Mrx2H140D and Mrx2R198G against the compound” value with Mrx2 mutants is recorded as “only residual activity”. Also, the “NO release” value in the series with M. bovis BCG cultures was “significant NO release in a concentration dependent manner”. Further, in [3], the “Induction of sigH and mrx2 expression” value was “time and concentration-dependant induction of both genes”.
`O=[N+]([O-])c1cc2c(ccc3c4cc([N+](=O)[O-])oc4ccc23)o1` [nNF-C3, 2,7-Dinitronaphtho[2,1-b:6,5-b']difuran]: in the series with M. tuberculosis H37Rv, the MIC stood at 1 µg/mL (≈ 3.35 µM).
For the molecule `COC(=O)c1ccc2c(ccc3oc([N+](=O)[O-])cc32)c1` [nNF-C4, Methyl 2-nitronaphtho[2,1-b]furan-7-carboxylate], the MIC90 with M. tuberculosis H37Rv amounted to 0.125 µg/mL (≈ 0.461 µM). For the same molecule, the “Activity against non-replicating M. tuberculosis in the charcoal assay relative to MIC90 against replicating bacteria” value in series [2] is recorded as 4–8 times. For the same molecule, the “Reduction of the number of intracellular M. tuberculosis bacteria” value in series [1] (2 times of MIC90 (0.25 μg/ml)) is on record as “ca. 2 logs”. In addition, in [1], the “Reduction of the burden of intracellular bacteria” value is “more than 4 logs”. Further, in the series with M. bovis BCG cultures, the “NO release” value is recorded as “significant NO release in a concentration dependent manner” and the “Nitrite levels relative to nNF-C2” value is approximately 4 times.
On to `N#Cc1ccc2c(ccc3oc([N+](=O)[O-])cc32)c1` [nNF-C5, 2-Nitronaphtho[2,1-b]furan-7-carbonitrile], for which the MIC90 in the series on M. tuberculosis H37Rv is 0.25 µg/mL (≈ 1.05 µM). This molecule had a half-maximal cytotoxic concentration (CC50) in “in vitro” of 12.5 µg/mL (≈ 52.5 µM).
Regarding `O=[N+]([O-])c1cc2c(ccc3cc(Br)ccc32)o1` [nNF-C6, 7-Bromo-2-nitronaphtho[2,1-b]furan], in the series with M. tuberculosis H37Rv, the MIC90 amounted to 0.5 µg/mL (≈ 1.71 µM). In addition, the “Selectivity index (SI)” value in the series with Vero cells is listed as 182.6.
On to `COc1ccc2c(ccc3oc([N+](=O)[O-])c(C)c32)c1` [nNF-C7, 7-Methoxy-1-methyl-2-nitronaphtho[2,1-b]furan], for which, in the series on M. tuberculosis H37Rv, the MIC90 was determined as 4 µg/mL (≈ 15.5 µM). Further, the 50% cytotoxic concentration (CC50) in “in vitro” was 67.5 µg/mL (≈ 262 µM).
In the case of `COc1cc2ccc3oc([N+](=O)[O-])cc3c2cc1OC` [nNF-C8, 7,8-Dimethoxy-2-nitronaphtho[2,1-b]furan], the MIC90 with M. tuberculosis H37Rv was 0.125 µg/mL (≈ 0.457 µM). Moreover, in “in vitro”, the 50% cytotoxic concentration (CC50) is 0.4 µg/mL (≈ 1.46 µM).
In the case of `CCCCc1c([N+](=O)[O-])oc2ccc3ccccc3c12` [nNF-C12, 1-Butyl-2-nitronaphtho[2,1-b]furan], the MIC90 with M. tuberculosis H37Rv was determined as 4 µg/mL (≈ 14.9 µM). The molecule further gave a cytotoxic concentration (CC50) in “in vitro” of 73.5 µg/mL (≈ 273 µM).
Turning to `Cc1c([N+](=O)[O-])oc2ccc3ccccc3c12` [nNF-C14, 1-Methyl-2-nitronaphtho[2,1-b]furan], the MIC90 with M. tuberculosis H37Rv was 2 µg/mL (≈ 8.8 µM). Also, the “Selectivity index (SI)” value with Vero cells is reported as more than 50.
As for `COc1ccc2c(ccc3oc([N+](=O)[O-])cc32)c1` [nNF-C16, 7-Methoxy-2-nitronaphtho[2,1-b]furan], in the series with M. tuberculosis H37Rv, the MIC90 was 0.0625 µg/mL (≈ 0.257 µM). Also, the CC50 in “in vitro” turned out to be 0.3 µg/mL (≈ 1.23 µM).
Turning to `CCc1c([N+](=O)[O-])oc2ccc3ccccc3c12` [nNF-C17, 1-Ethyl-2-nitronaphtho[2,1-b]furan], the MIC90 in the series on M. tuberculosis H37Rv was 2 µg/mL (≈ 8.29 µM). Also, it took 55.1 µg/mL (≈ 228 µM) to reach half-maximal cytotoxicity in the series “in vitro” (CC50).
As for `COc1ccc2ccc3oc([N+](=O)[O-])cc3c2c1Br` [nNF-C18, 9-Bromo-8-methoxy-2-nitronaphtho[2,1-b]furan], in the series on M. tuberculosis H37Rv, the MIC90 stood at 0.25 µg/mL (≈ 0.776 µM). The same molecule yielded a CC50 in “in vitro” of 2.2 µg/mL (≈ 6.83 µM).
In the case of `CCOC(=O)COc1ccc2ccc3oc([N+](=O)[O-])cc3c2c1` [nNF-C20, Ethyl 2-({2-nitronaphtho[2,1-b]furan-8-yl}oxy)acetate], in the series on M. tuberculosis H37Rv, the MIC stood at 0.25 µg/mL (≈ 0.793 µM). Further, in “in vitro”, the midpoint of cytotoxicity, the CC50, lay at 9.3 µg/mL (≈ 29.5 µM).
